Results as given in US6635434B1, “Immunoassay for pesticides and their degradation products” (Exiqon A/S, priority 1999, dated 2003).
Values joined by “and” are separate entries in the source; they are usually repeats but may differ in a detail not shown here. Equal values may be shown once. “Also recorded” adds a separate entry of the source.

Key:
antibody (HYB 273-1) [1] = test: Competitive ELISA for BAM on plates covalently (photocoupled) coated with BAM-OA-AQ; type: binding, mice; details: for cross-reactivity (IC50 of BAM divided by IC50 of analyte, times 100): analytes assayed up to 100 mg/L, antibody HYB 273-1
Method: A PolySorp™ microtitre plate was filled by a stationary dispensor with 200 μL/well BAM-OA-AQ (50 ng/mL) in 0.1×PBS. After being exposed to uv-light (300-400 nm) at 34° C. for 30 min, the plate was washed 4 times with de-ionised water and dried 30 min at 37° C. The plate was either used immediately or sealed with tape lid and stored at room temperature in the dark until use.
(§1) Standards (in Milli-Q® water) and samples (150 μL) were added to the hapten-coated plate followed by the addition of 50 μL antibody (HYB 273-1) diluted in 10×PBST (66.7 ng/mL). The plate was incubated for 1 hour. After washing 4 times with PBST, the plate was incubated with 200 μL/well RαM^HRP diluted 1:1000 in PBST. After a final 6 times wash with PBST, 200 μL/well TMB-Plus was added. The colour development was stopped after 10 minutes by adding 50 μL/well 1 M H2SO4 and the absorbance was read at 450 nm.
(§2) The standards were used to generate a semi-log graph based on the 4-parameter-logistic method (Rodbard, 1974: equation 1), followed by calculation of sample values. [formula]
(§3) To compare the performances of the two ELISA methods with antigen coated by passive adsorption to that by covalent immobilisation respectively, standard curves were generated with BAM standards ranging from 0.0156 to 2 μg/L on each surface using the identical assay procedures. The data were normalised by the % B/B0 transformation (eq 2). The normalised data were then plotted vs. BAM concentration and the four-parameter-logistic equation (eq 1) was fitted to the experimental points (FIG. 3).
As to detection limits (defined as the analyte concentration giving a 15% decrease in maximum signal: DL15) and sensitivity (defined as the analyte concentration giving a 50% decrease in maximum signal: IC50) the two surface performs almost equally. […] Further development of the BAM assay was therefore based on this technology and the following results are generated on PolySorp™ microtire plates covalently coated with BAM-OA-AQ as described herein in the Preparation of plates section

antibody (HYB 273-1) [2] = test: Competitive ELISA for BAM on plates coated with BAM-OA by passive adsorption; type: binding, mice; details: FIG. 3B
Method: i) Passive adsorption: A MaxiSorp™ microtitre plate was filled by a stationary dispensor with 200 μL/well BAM-OA (16.7 ng/mL) in coating buffer. After coating over night at 4° C. the plate was washed 4 times with de-ionised water and dried 30 min at 37° C. The plate was either used immediately or sealed with tape lid and stored at room temperature in the dark until use.
as §1, §2
as §3, with “The normalised data were then plotted vs. BAM concentration and the four-parameter-logistic equation (eq 1) was fitted to the experimental points (FIG. 3).” left out

[3] = Immunisation of mice with hapten-polymer carrier complex, raising of monoclonal antibodies; type: in vivo; details: hapten coupled to polymer carrier (ovalbumin)
Method: Live mice were primed for immunisation by an intraperitoneal injection of live BCG-vaccine one month before immunisation. The antigen (hapten-OA complex), once adsorbed onto Al(OH)3, was injected intraperitonally and test bleeding were collected. When antibody titre's exceeded 1:2000, mice were considered ready for fusion and the method described by Köhler and Milstein (1975) was employed with minor modifications. Monoclonal antibodies were selected on basis of titre, affinity and specificity. Selected clones were recloned until monoclonality and stored frozen at −80° C.
Ten to twelve weeks old female Balb/cxCF1 F1-hybrid mice were used for immunisation. One month before immunisation they were primed with 0.2 mL live BCG-vaccine intraperitonally. The antigen (25×carrier/immunogen) was absorbed onto Al(OH)3 as an adjuvant. The total volume of vaccine per immunisation was 200 μL, containing 25× of antigen and […] of adjuvant. The antigen was injected intraperitonally with 2-weeks intervals. Test bleedings were collected 10 days after immunisation and assayed in ELISA.
When antibody titre's exceeded 1:2000, mice were regarded ready for fusion. The procedure as described by Köhler and Milstein (1975) was employed with minor modifications. Monoclonal antibodies were selected on basis of titre, affinity and specificity. […]

Compound | cross-reactivity (IC50 of BAM divided by IC50 of analyte, times 100) (antibody (HYB 273-1) [1]) | immunoresponse on immunisation with the hapten [3] | further results
NC(=O)c1ccc(Cl)cc1Cl [2,4-dichlorobenzamide] | 3.8% |  | 
NC(=O)c1c(Cl)cccc1Cl [BAM, 2,6-dichlorobenzamide] |  |  | DL15 (detection limit, analyte concentration giving a 15% decrease in maximum signal) (antibody (HYB 273-1) [2]; passive adsorption): 0.045 µg/L; IC50 (analyte concentration giving a 50% decrease in maximum signal) (antibody (HYB 273-1) [2]; passively adsorbed plates (MaxiSorp)): 0.144 ng/mL and 0.14 ng/mL; IC50 (analyte concentration giving a 50% decrease in maximum signal) (antibody (HYB 273-1) [1]; covalently immobilised plates (PolySorp, photocoupled), FIG. 3A): 0.189 ng/mL and 0.19 ng/mL; DL15 (detection limit, analyte concentration giving a 15% decrease in maximum signal) (antibody (HYB 273-1) [1]; photo catalysed covalent immobilisation, FIG. 3A): 0.02 µg/L
O=C(CCCCCNC(=O)c1c(Cl)cccc1Cl)ON1C(=O)CCC1=O [EQ-0025, succinimidyl-N-(2,6-dichlorobenzoyl)-6-amino-hexanoate] |  | able to induce strong immunoresponse | 
N#Cc1c(Cl)cccc1Cl [dichlorbenil, dichlorobenzonitrile] | no measurable cross-reactivity |  | 
N-(5-carboxypentyl)-2,4-dichloro-3-amido aniline [EQ-0031] |  | good responses were generated; also recorded: generated good immunoresponse | 
